Assay results published in the supplement of paper PMC10307832.

These cell lines were tested with C[C@]1(c2nc3c(C(N)=O)cccc3[nH]2)CCCN1 [Veliparib] + CS(=O)(=O)CCNCc1ccc(-c2ccc3ncnc(Nc4ccc(OCc5cccc(F)c5)c(Cl)c4)c3c2)o1 [Lapatinib] (partner 2 µM) (assay: relative viability (nuclei count vs DMSO), 5 days (fraction); higher = more cells survive). Conditions: first compound 0.02 µM.
Outline: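 Values are medians from duplicate plates. Each reflects relative viability, defined as the nuclei count of treated wells over that of vehicle wells. Lung cancer cell lines in 1536-well plates were pin-tool dosed one day after seeding with one drug alone or with a fixed anchor-drug dose plus five library-drug doses (not always all listed) in √10 steps, then fixed, stained and imaged at 4× after 5 days.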

Cell Line | relative viability
NCI-H2228 | 0.968
LOU-NH91 | 0.708
NCI-H1666 | 0.606
NCI-H650 | 0.82
NCI-H1703 | 1.11
Calu-6 | 1.14
NCI-H1993 | 0.794
HCC-44 | 0.986
NCI-H647 | 1.24
NCI-H2126 | 0.797
NCI-H1755 | 1.02
PC-3 [JPC-3] | 0.422
NCI-H1792 | 0.922
NCI-H2087 | 0.548
HOP-62 | 1.14
NCI-H2170 | 0.259
NCI-H2347 | 0.962
HARA | 0.748
NCI-H1915 | 0.96
SK-MES-1 | 0.5
NCI-H23 | 1.19
NCI-H661 | 0.413
CAL-12T | 0.649
NCI-H1944 | 0.825
HCC-366 | 1.06
NCI-H322M | 0.722

Same assay, conditions: first compound 0.06325 µM

Cell Line | relative viability
NCI-H1793 | 0.555
201T | 1.03
NCI-H2228 | 0.889
LOU-NH91 | 0.656
NCI-H1666 | 0.348
NCI-H650 | 0.827
NCI-H1703 | 0.922
Calu-6 | 0.985
NCI-H1993 | 0.759
HCC-44 | 0.85
NCI-H647 | 0.986
NCI-H2126 | 0.687
NCI-H1755 | 1
PC-3 [JPC-3] | 0.397
NCI-H1792 | 0.719
NCI-H2087 | 1.02
HOP-62 | 0.878
NCI-H2170 | 0.245
NCI-H2347 | 0.917
HARA | 0.57
NCI-H1355 | 0.882
NCI-H1915 | 0.897
SK-MES-1 | 0.413
NCI-H23 | 0.995
NCI-H661 | 0.483
CAL-12T | 0.706
NCI-H1944 | 0.748
HCC-366 | 0.897
NCI-H322M | 0.602

Same assay, conditions: first compound 0.2 µM

Cell Line | relative viability
NCI-H1793 | 0.788
201T | 1.04
NCI-H2228 | 1.11
LOU-NH91 | 0.82
NCI-H1666 | 0.675
NCI-H650 | 0.816
NCI-H1703 | 1.35
Calu-6 | 0.96
NCI-H1993 | 0.823
HCC-44 | 1.01
NCI-H647 | 0.973
NCI-H2126 | 0.726
NCI-H1755 | 1.01
PC-3 [JPC-3] | 0.454
NCI-H1792 | 0.962
NCI-H2087 | 0.913
HOP-62 | 0.951
NCI-H2170 | 0.268
NCI-H2347 | 0.897
HARA | 0.86
NCI-H1355 | 0.999
NCI-H1915 | 0.756
SK-MES-1 | 0.438
NCI-H23 | 0.84
NCI-H661 | 0.56
CAL-12T | 0.647
NCI-H1944 | 0.627
HCC-366 | 0.929
NCI-H322M | 0.629

Same assay, conditions: first compound 0.6325 µM

Cell Line | relative viability
NCI-H1793 | 0.572
201T | 1.05
NCI-H2228 | 0.96
LOU-NH91 | 0.735
NCI-H1666 | 0.744
NCI-H650 | 0.932
NCI-H1703 | 0.982
Calu-6 | 0.971
NCI-H1993 | 0.851
HCC-44 | 0.933
NCI-H647 | 1
NCI-H2126 | 0.775
NCI-H1755 | 0.99
PC-3 [JPC-3] | 0.476
NCI-H1792 | 0.983
NCI-H2087 | 0.854
HOP-62 | 0.99
NCI-H2170 | 0.299
NCI-H2347 | 1.01
HARA | 0.743
NCI-H1355 | 0.939
NCI-H1915 | 0.872
SK-MES-1 | 0.473
NCI-H23 | 0.873
NCI-H661 | 0.447
CAL-12T | 0.593
NCI-H1944 | 0.72
HCC-366 | 0.974
NCI-H322M | 0.61

Same assay, conditions: first compound 2 µM

Cell Line | relative viability
NCI-H1793 | 0.762
201T | 0.995
NCI-H2228 | 1.06
LOU-NH91 | 0.781
NCI-H1666 | 0.662
NCI-H650 | 0.501
NCI-H1703 | 1.2
Calu-6 | 0.989
NCI-H1993 | 0.85
HCC-44 | 1.07
NCI-H647 | 1.16
NCI-H2126 | 0.729
NCI-H1755 | 0.989
PC-3 [JPC-3] | 0.477
NCI-H1792 | 0.832
NCI-H2087 | 1.32
HOP-62 | 1.12
NCI-H2170 | 0.285
NCI-H2347 | 0.944
HARA | 0.853
NCI-H1355 | 0.968
NCI-H1915 | 0.885
SK-MES-1 | 0.473
NCI-H23 | 1.01
NCI-H661 | 0.533
CAL-12T | 0.781
NCI-H1944 | 0.767
HCC-366 | 1.09
NCI-H322M | 0.471
